The results in this text go back to the NIST ThermoML archive (doi:10.1007/s10765-011-0997-8).

The conditions of this data set: 101.33 kPa, Liquid; for speed of sound: Linear variable-path acoustic interferometer; for mass density: Pycnometric method.

SMILES strings stand for the structures. Numbers after ± are expanded uncertainties.

For `Cc1ccccc1C` [1,2-dimethylbenzene], where the note is “298.15 K”, the speed of sound – broadly, how fast a sound wave travels through the sample – is 1346 ± 2 m/s and the mass density (commonly mass per unit of volume) amounted to 875.9 ± 0.28 kg/m3.
On the same counts, the results for `Cc1ccc(C)cc1` [1,4-dimethylbenzene] are 1310 ± 2 m/s and 856.65 ± 0.28 kg/m3.
For `c1ccccc1` [benzene], in that order: 1298 ± 3 m/s and 873.64 ± 0.46 kg/m3.
Take `C1CCOCC1` [tetrahydropyran]: the speed of sound (298.15 K) was 1272 ± 3 m/s. For the same molecule, the mass density (308.15 K) worked out at 868.81 ± 0.49 kg/m3.
Take `Cc1ccccc1` [toluene]: under “298.15 K”, the speed of sound is 1303 ± 2 m/s and the mass density came to 862.22 ± 0.31 kg/m3.
